Where “and” joins values, the source holds several entries; their conditions need not be identical. Equal entries are not always repeated. HELM strings list units from the 5' end as sugar, base in round brackets, then linkage (d deoxyribose, r ribose, m 2'-O-methyl, p phosphodiester). Strings are as the collection lists them, not checked against the first reports. ss, as = sense and antisense strand; [lna] = locked nucleic acid (LNA); [hna] = hexitol nucleic acid; [s4r] = 4'-thioribose; [fl2r] = 2'-fluoro
Conditions: siRNA
Also: test system not given here.

Substance	target mRNA knockdown
RNA1{r(A)p.r(G)p.[fl2r](U)p.r(A)p.r(A)p.r(U)p.r(C)p.r(C)p.r(G)p.r(G)p.r(A)p.r(C)p.r(U)p.r(C)p.r(A)p.r(A)p.r(C)p.r(U)p.r(C)p.r(T)p.r(T)}|RNA2{r(G)p.r(A)p.r(G)p.r(U)p.r(U)p.r(G)p.r(A)p.r(G)p.r(U)p.r(C)p.r(C)p.r(G)p.r(G)p.r(A)p.r(U)p.[fl2r](U)p.r(A)p.r(C)p.r(U)p.r(T)p.r(T)}$$$RNA1{StrandType:ss}|RNA2{StrandType:as}$	69%
RNA1{m(A)p.r(G)p.m(U)p.r(C)p.m(C)p.r(C)p.m(U)p.r(G)p.m(G)p.r(A)p.m(G)p.r(C)p.m(C)p.r(U)p.r(U)p.r(A)p.m(A)p.r(A)p.m(C)p.r(T)p.r(T)}|RNA2{r(G)p.r(U)p.r(U)p.r(U)p.r(A)p.r(A)p.r(G)p.r(G)p.r(C)p.r(U)p.r(C)p.r(C)p.r(A)p.r(G)p.r(G)p.r(G)p.r(A)p.r(C)p.r(U)p.r(T)p.r(T)}$$$RNA1{StrandType:ss}|RNA2{StrandType:as}$	68%
RNA1{[s4r](C)p.[s4r](G)p.[s4r](U)p.[s4r](A)p.r(C)p.r(G)p.r(C)p.r(G)p.r(G)p.r(A)p.r(A)p.r(U)p.r(A)p.r(C)p.r(U)p.[s4r](U)p.[s4r](C)p.[s4r](G)p.[s4r](A)p.r(T)p.r(T)}|RNA2{r(U)p.r(C)p.r(G)p.r(A)p.r(A)p.r(G)p.r(U)p.r(A)p.r(U)p.r(U)p.r(C)p.r(C)p.r(G)p.r(C)p.r(G)p.r(U)p.r(A)p.[s4r](C)p.[s4r](G)p.r(T)p.r(T)}$$$RNA1{StrandType:ss}|RNA2{StrandType:as}$	92%
RNA1{r(U)p.r(C)p.r(C)p.r(U)p.r(A)p.r(C)p.r(A)p.r(G)p.r(C)p.r(A)p.r(C)p.r(A)p.r(A)p.r(C)p.r(A)p.r(A)p.r(A)p.r(U)p.r(G)p.d(U)p.d(G)}|RNA2{r(C)p.r(A)p.r(U)p.r(U)p.r(U)p.r(G)p.r(U)p.r(U)p.r(G)p.r(U)p.r(G)p.r(C)p.r(U)p.r(G)p.r(U)p.r(A)p.r(G)p.r(G)p.r(A)p.d(A)p.d(G)}$$$RNA1{StrandType:ss}|RNA2{StrandType:as}$	25% and 0%
RNA1{[fl2r](G)p.r(C)p.[fl2r](U)p.r(U)p.[fl2r](C)p.r(G)p.[fl2r](G)p.r(A)p.[fl2r](A)p.r(A)p.[fl2r](C)p.r(U)p.[fl2r](G)p.r(G)p.[fl2r](A)p.r(C)p.[fl2r](A)p.r(U)p.[fl2r](C)p.r(T)p.r(T)}|RNA2{[fl2r](G)p.r(A)p.r(U)p.[fl2r](G)p.r(U)p.r(C)p.r(C)p.r(A)p.[fl2r](G)p.r(U)p.r(U)p.r(U)p.r(C)p.r(C)p.[fl2r](G)p.r(A)p.r(A)p.[fl2r](G)p.r(C)p.r(T)p.r(T)}$$$RNA1{StrandType:ss}|RNA2{StrandType:as}$	29%
RNA1{[s4r](C)p.[s4r](G)p.r(U)p.r(A)p.r(C)p.r(G)p.r(C)p.r(G)p.r(G)p.r(A)p.r(A)p.r(U)p.r(A)p.r(C)p.r(U)p.r(U)p.r(C)p.r(G)p.r(A)p.r(T)p.r(T)}|RNA2{r(U)p.r(C)p.r(G)p.r(A)p.r(A)p.r(G)p.r(U)p.r(A)p.r(U)p.r(U)p.r(C)p.r(C)p.r(G)p.r(C)p.r(G)p.r(U)p.r(A)p.r(C)p.r(G)p.r(T)p.r(T)}$$$RNA1{StrandType:ss}|RNA2{StrandType:as}$	95.5%
RNA1{r(A)p.r(G)p.r(A)p.r(A)p.r(A)p.r(A)p.r(G)p.m(C)p.r(A)p.r(G)p.r(C)p.r(G)p.r(A)p.m(U)p.r(A)p.r(C)p.r(G)p.r(C)p.r(U)p.r(T)p.r(T)}|RNA2{r(A)p.r(G)p.r(C)p.r(G)p.r(U)p.r(A)p.r(U)p.r(C)p.r(G)p.r(C)p.m(U)p.r(G)p.r(C)p.r(U)p.r(U)p.r(U)p.r(U)p.r(C)p.r(U)p.r(T)p.r(T)}$$$RNA1{StrandType:ss}|RNA2{StrandType:as}$	68%
RNA1{r(C)p.r(G)p.r(U)p.r(A)p.r(C)p.r(G)p.r(C)p.r(G)p.r(G)p.r(A)p.r(A)p.r(U)p.r(A)p.r(C)p.r(U)p.r(U)p.r(C)p.r(G)p.r(A)p.r(T)p.r(T)}|RNA2{[s4r](U)p.[s4r](C)p.[s4r](G)p.[s4r](A)p.r(A)p.r(G)p.r(U)p.r(A)p.r(U)p.r(U)p.r(C)p.r(C)p.r(G)p.r(C)p.r(G)p.[s4r](U)p.[s4r](A)p.[s4r](C)p.[s4r](G)p.r(T)p.r(T)}$$$RNA1{StrandType:ss}|RNA2{StrandType:as}$	20%
RNA1{r(C)p.r(G)p.r(A)p.r(G)p.m(U)p.r(G)p.r(U)p.r(C)p.m(U)p.r(A)p.r(A)p.r(C)p.r(G)p.r(G)p.r(G)p.r(A)p.r(G)p.r(C)p.r(C)p.r(T)p.r(T)}|RNA2{r(G)p.r(G)p.r(C)p.r(U)p.r(C)p.r(C)p.r(C)p.r(G)p.r(U)p.m(U)p.r(A)p.r(G)p.r(A)p.m(C)p.r(A)p.r(C)p.r(U)p.r(C)p.r(G)p.r(T)p.r(T)}$$$RNA1{StrandType:ss}|RNA2{StrandType:as}$	65%
RNA1{r(C)p.r(U)p.r(U)p.r(A)p.r(C)p.r(G)p.r(C)p.r(U)p.r(G)p.r(A)p.r(G)p.r(U)p.r(A)p.r(C)p.r(U)p.r(U)p.r(C)p.r(G)p.r(A)p.r(T)p.r(T)}|RNA2{r(U)p.r(C)p.r(G)p.r(A)p.r(A)p.r(G)p.[lna](U)p.r(A)p.r(C)p.r(U)p.r(C)p.r(A)p.r(G)p.r(C)p.r(G)p.r(U)p.r(A)p.r(A)p.r(G)p.r(T)p.r(T)}$$$RNA1{StrandType:ss}|RNA2{StrandType:as}$	81%
RNA1{r(G)p.r(A)p.r(A)p.m(U)p.r(A)p.r(A)p.r(C)p.r(C)p.m(U)p.r(G)p.r(A)p.r(A)p.r(C)p.r(G)p.r(U)p.m(C)p.r(A)p.r(C)p.r(C)p.r(T)p.r(T)}|RNA2{r(G)p.r(G)p.m(U)p.r(G)p.r(A)p.r(C)p.r(G)p.r(U)p.r(U)p.m(C)p.r(A)p.r(G)p.r(G)p.r(U)p.m(U)p.r(A)p.r(U)p.r(U)p.r(C)p.r(T)p.r(T)}$$$RNA1{StrandType:ss}|RNA2{StrandType:as}$	51% and 69%
RNA1{r(A)p.r(G)p.r(A)p.r(A)p.r(G)p.m(U)p.r(A)p.r(C)p.m(C)p.r(A)p.r(G)p.r(G)p.r(A)p.r(G)p.m(G)p.r(C)p.r(G)p.r(U)p.r(U)p.r(T)p.r(T)}|RNA2{r(A)p.r(A)p.r(C)p.r(G)p.r(C)p.r(C)p.r(U)p.r(C)p.r(C)p.m(U)p.r(G)p.r(G)p.m(U)p.r(A)p.r(C)p.r(U)p.r(U)p.r(C)p.r(U)p.r(T)p.r(T)}$$$RNA1{StrandType:ss}|RNA2{StrandType:as}$	68%
RNA1{r(G)p.r(A)p.r(C)p.r(G)p.r(U)p.r(A)p.r(A)p.r(A)p.r(C)p.r(G)p.r(G)p.r(C)p.r(C)p.r(A)p.r(C)p.r(A)p.r(A)p.r(G)p.[hna](U)p.[hna](U)p.r(C)}|RNA2{[fl2r](A)p.m(C)p.[fl2r](U)p.m(U)p.[fl2r](G)p.m(U)p.[fl2r](G)p.m(G)p.[fl2r](C)p.m(C)p.[fl2r](G)p.m(U)p.[fl2r](U)p.m(U)p.[fl2r](A)p.m(C)p.[fl2r](G)p.m(U)p.[fl2r](C)p.m(G)p.[fl2r](C)}$$$RNA1{StrandType:ss}|RNA2{StrandType:as}$	45.8%
RNA1{r(A)p.r(G)p.r(A)p.r(G)p.r(U)p.r(U)p.r(G)p.r(G)p.r(G)p.r(A)p.r(U)p.r(U)p.r(A)p.r(G)p.r(G)p.r(G)p.r(C)p.r(U)p.r(U)p.r(T)p.r(T)}|RNA2{m(A)p.r(A)p.m(G)p.r(C)p.m(C)p.r(C)p.m(U)p.r(A)p.m(A)p.r(U)p.m(C)p.r(C)p.m(C)p.r(A)p.m(A)p.r(C)p.m(U)p.r(C)p.m(U)p.r(T)p.r(T)}$$$RNA1{StrandType:ss}|RNA2{StrandType:as}$	45%

Reference: the OligoGym collection
